Results taken from patent US6326034A, “Natural extracted and synthetic antioxidant compositions” (priority 1999, dated 2001).

Experiments:
[1] = β-carotene test (coupled oxidation of β-carotene and linoleic acid), in vitro; conditions: β Carotene test; for antioxidant activity (in words): chromium compounds and their reactants; for EC50 for antioxidant activity of chromium compounds: Table 6
Protocol: Evaluation of antioxidant activity is based on coupled oxidation of β-carotene and linoleic acid. The technique consists of measuring the consumption of β-carotene as a result of its oxidation process in the reaction mixture. The β-carotene-linoleic acid method has been reported as an efficient technique to detect and evaluate antioxidants from plants and from other sources by several investigation groups. Ten milligram of β-carotene were dissolved in 10 ml chloroform and 0.6 ml of the solution was added to a round flask that contained 20 mg of linoleic acid and 200 mg of Tween 20. Chloroform was removed by evaporation, and 50 ml of distilled water were slowly added to the flask with vigorous agitation to form an emulsion. Two milliliters of the emulsion were added to 1 ml of the examined antioxidant solution. The tubes were placed in a water bath at 50° C. and absorbance measurements were made at 30 minutes intervals [M. S. Taga et al., J. Am. Oil Chem. Soc. 61: 928-931, 1984]. […]

[2] = FRAP assay (ferric reducing/antioxidant power), in vitro

O=S(=O)([O-])[O-].O=S(=O)([O-])[O-].O=S(=O)([O-])[O-].[Cr+3].[Cr+3] [Cr2(SO4)3, chromium sulfate, reference compound]
antioxidant activity (in words) [1]: relatively much lower antioxidant effect

CC(=O)[O-].CC(=O)[O-].CC(=O)[O-].[Cr+3] [Cr Acetate, chromium acetate, reference compound]
antioxidant activity (in words) [1]: lacks any antioxidant activity

[Cl][Cr]([Cl])[Cl] [CrCl3, chromium chloride, reference compound]
antioxidant activity (in words) [1]: relatively much lower antioxidant effect | EC50 for antioxidant activity of chromium compounds [1]: 7.2 × 10^-4 mg Cr/ml | antioxidant activity (in words) ([2]; chromium compounds, FRAP, all concentrations used): inactive

N[C@@H](CS)C(=O)O [Cysteine, cysteine, reference compound]
antioxidant activity (in words) [1]: no antioxidant activity

N[C@@H](CCC(=O)N[C@@H](CS)C(=O)NCC(=O)O)C(=O)O [Glutathione, glutathione, reference compound]
antioxidant activity (in words) [1]: lower activity

CC(=O)N[C@@H](CS)C(=O)O [NAC, N-acetyl cysteine, reference compound]
antioxidant activity (in words) [1]: lower activity

Chromium Cysteine [Cr-Cys]
antioxidant activity (in words) [1]: the most active complex | antioxidant activity (in words) ([1]; listed as Cr-cysteine): dose dependent antioxidant activity | EC50 for antioxidant activity of chromium compounds [1]: 7.8 × 10^-8 mg Cr/ml | fold more active than cysteine ([2]; at equal concentrations of cysteine, FIG. 27): 2.5 fold

Chromium N-Acetyl Cysteine [Cr-NAC]
antioxidant activity (in words) [1]: dose dependent antioxidant activity | EC50 for antioxidant activity of chromium compounds [1]: 2.7 × 10^-7 mg Cr/ml

Chromium-Cystine
antioxidant activity (in words) [1]: did not show any antioxidant activity

Chromium-Glutathione [Cr-GSH]
antioxidant activity (in words) [1]: dose dependent antioxidant activity | EC50 for antioxidant activity of chromium compounds [1]: 2.7 × 10^-7 mg Cr/ml
